In US7745390B2, “Antimicrobial peptides” (priority 2005, dated 2010):
Square brackets hold non-standard residues; d marks the D form. Ends that are not written are not given here. Peptide text beside a SMILES is read from it.

Tests used:
B. cereus = format: cell-based; conditions: pH 7.2
Procedure: (§1) The experiments described above characterizing the activity of granulysin peptides G1-G18 relied on counting bacterial colonies on plates. This assay is quite labor intensive and would not allow evaluation of many different compounds on a number of different microbes. Therefore, we optimized an assay in which the entire procedure could be completed in a single microtiter well. Briefly, peptides are diluted in 10 mM phosphate buffer, pH 7.2 supplemented with 0.03% LB (J. Sambrook, D. W. Russell, Molecular Cloning: A Laboratory Manual (Cold Spring Harbor Laboratory Press, New York, ed. 3, 2001) pg. A2.2, Retrieved from http://openwetware.org/wiki/LB) and 25 μl is added to microtiter wells. Bacteria (25 μl) are added (˜5×10^6 colony forming units/ml) in the same buffer. After a 3-hour incubation at 37° C., 150 μl of LB is added and the plates are incubated overnight. The OD at 600 nm is read on an ELISA plate reader. The minimum inhibitory concentration (MIC) is the lowest concentration allowing no bacterial growth. The IC50 is the concentration of peptide that results in 50% growth compared to the medium.
(§2) We now describe additional peptides and their activity. The peptides have been designed, synthesized, and have been tested for lysis of E. coli and S. typhimurium (gram negative bacteria), B. cereus (gram positive bacterium). Results are shown in Table 2 along with the amino acid sequence of the peptide. Changes from the naturally occurring sequence are underlined. In general, the desired result is lysis of bacteria at low concentration (<1 μM).
(§3) In Table 2, Columns 2-7 are the MIC and IC50 (concentration required for 50% inhibition of growth) for each organism (E. coli, Salmonella, and B. cereus). The MIC (minimum inhibitory concentration) was determined as described above, in a multiwell plate assay. […] L-isomer amino acids are designated by capital letters while D-isomer amino acids are designated by lower case letters.

E. coli DH5a = format: cell-based; conditions: DH5a, pH 7.2
Procedure: as §1, §2, §3

Salmonella = format: cell-based, S. typhimurium; conditions: pH 7.2
Procedure: as §1, §2, §3

RRDSRRFMRR [Peptide G11.11, RRDSRRFMRR]
B. cereus MIC (B. cereus): >10 µM
IC50 (B. cereus): > 10 µM
E. coli DH5a MIC (E. coli DH5a): >10 µM
IC50 (E. coli DH5a): 7.45 µM
IC50 (Salmonella): > 10 µM
Salmonella MIC (Salmonella): >10 µM

CC(C)[C@H](NC(=O)[C@H](CO)NC(=O)[C@H](CCCNC(=N)N)NC(=O)[C@@H](N)CCC(N)=O)C(=O)N[C@@H](CO)C(=O)N[C@@H](CCCNC(=N)N)C(=O)N[C@H](C)C(=O)N[C@H](C)C(=O)N[C@H](C(=O)N[C@@H](CCCNC(=N)N)C(=O)N[C@H](C(=O)N[C@@H](CO)C(=O)N[C@@H](CCCNC(=N)N)C(=O)N[C@H](C(=O)NCC(=O)N[C@@H](CCCNC(=N)N)C(=O)N[C@@H](CO)C(=O)N[C@@H](CCCNC(=N)N)C(=O)N[C@@H](Cc1c[nH]c2ccccc12)C(=O)O)[C@@H](C)O)C(C)C)[C@@H](C)O [Peptide G13.7, QRSVSRaaTRVSRTGRSRW] (H-QRSVSR[dA][dA]TRVSRTGRSRW-OH; N-terminus and C-terminus assumed)
B. cereus MIC (B. cereus): >10 µM
IC50 (B. cereus): 7.7 µM
E. coli DH5a MIC (E. coli DH5a): 5.7 µM
IC50 (E. coli DH5a): 2.85 µM
IC50 (Salmonella): > 10 µM
Salmonella MIC (Salmonella): >10 µM

RRVSRRFMRRGSRRVSRRFMRR [Peptide G11.7]
B. cereus MIC (B. cereus): 0.35 µM
IC50 (B. cereus): 0.21 µM
E. coli DH5a MIC (E. coli DH5a): 0.35 µM
IC50 (E. coli DH5a): 0.21 µM
IC50 (Salmonella): 0.21 µM
Salmonella MIC (Salmonella): 0.35 µM

CSCC[C@H](NC(=O)[C@H](Cc1ccccc1)NC(=O)[C@H](CCCCN)NC(=O)[C@H](CCCCN)NC(=O)[C@H](CO)NC(=O)[C@@H](NC(=O)[C@H](CCCCN)NC(=O)[C@H](CCCCN)NC(=O)[C@H](CO)NC(=O)CNC(=O)[C@H](CCCCN)NC(=O)[C@H](CCCCN)NC(=O)[C@H](CCSC)NC(=O)[C@H](Cc1ccccc1)NC(=O)[C@H](CCCCN)NC(=O)[C@H](CCCCN)NC(=O)[C@H](CO)NC(=O)[C@@H](NC(=O)[C@H](CCCCN)NC(=O)[C@@H](N)CCCCN)C(C)C)C(C)C)C(=O)N[C@@H](CCCCN)C(=O)N[C@@H](CCCCN)C(=O)O [Peptide G11.15]
B. cereus MIC (B. cereus): >10 µM
IC50 (B. cereus): 5.85 µM
E. coli DH5a MIC (E. coli DH5a): 1.38 µM
IC50 (E. coli DH5a): 0.8 µM
IC50 (Salmonella): 0.41 µM
Salmonella MIC (Salmonella): 0.7 µM

CSCC[C@H](NC(=O)[C@H](Cc1ccccc1)NC(=O)[C@@H](CCCNC(=N)N)NC(=O)[C@@H](CCCNC(=N)N)NC(=O)[C@H](CO)NC(=O)[C@@H](NC(=O)[C@@H](CCCNC(=N)N)NC(=O)[C@@H](CCCNC(=N)N)NC(=O)[C@@H](CCCNC(=N)N)NC(=O)[C@@H](CCCNC(=N)N)NC(=O)[C@@H](CCCNC(=N)N)NC(=O)[C@@H](CCCNC(=N)N)NC(=O)[C@@H](CCCNC(=N)N)NC(=O)[C@H](CCC(N)=O)NC(=O)[C@H](CC(C)C)NC(=O)[C@H](CCCCN)NC(=O)[C@H](CO)NC(=O)[C@H](CO)NC(=O)[C@H](Cc1c[nH]cn1)NC(=O)[C@H](CC(=O)O)NC(=O)CNC(=O)CNC(=O)[C@H](CC(=O)O)NC(=O)CNC(=O)CNC(=O)[C@@H](N)CC(=O)O)C(C)C)C(=O)N[C@H](CCCNC(=N)N)C(=O)N[C@H](CCCNC(=N)N)C(=O)O [Peptide G11.47, DGGDGGDHSSKLQrrrrrrrVSrrFMrr] (H-DGGDGGDHSSKLQ[dR][dR][dR][dR][dR][dR][dR]VS[dR][dR]FM[dR][dR]-OH; N-terminus and C-terminus assumed)
B. cereus MIC (B. cereus): 0.32 µM
IC50 (B. cereus): 0.1 µM
E. coli DH5a MIC (E. coli DH5a): 0.18 µM
IC50 (E. coli DH5a): 0.1 µM
IC50 (Salmonella): 0.15 µM
Salmonella MIC (Salmonella): 0.45 µM

RRVSRRFMRRYQSRVPQGLV [Peptide G12.10]
B. cereus MIC (B. cereus): 1.4 µM
IC50 (B. cereus): 0.89 µM
E. coli DH5a MIC (E. coli DH5a): 0.7 µM
IC50 (E. coli DH5a): 0.45 µM
IC50 (Salmonella): 0.85 µM
Salmonella MIC (Salmonella): 1.4 µM

RRLLRRLLRRGSRRLLRRLLRR [Peptide G11.23]
B. cereus MIC (B. cereus): 0.7 µM
IC50 (B. cereus): 0.41 µM
E. coli DH5a MIC (E. coli DH5a): 0.7 µM
IC50 (E. coli DH5a): 0.45 µM
IC50 (Salmonella): 0.45 µM
Salmonella MIC (Salmonella): 0.71 µM

QRSVSRAATRVCRTGRSNW [Peptide G13.10, QRSVSRAATRVCRTGRSNW]
B. cereus MIC (B. cereus): 5.6 µM
IC50 (B. cereus): 3.5 µM
E. coli DH5a MIC (E. coli DH5a): 0.71 µM
IC50 (E. coli DH5a): 0.25 µM
IC50 (Salmonella): > 10 µM
Salmonella MIC (Salmonella): >10 µM

RRVSRRFMRRYQSRVIQGLV [Peptide G12.6]
B. cereus MIC (B. cereus): 0.7 µM
IC50 (B. cereus): 0.42 µM
E. coli DH5a MIC (E. coli DH5a): 1.45 µM
IC50 (E. coli DH5a): 0.89 µM
IC50 (Salmonella): 0.9 µM
Salmonella MIC (Salmonella): 1.45 µM

RRVVRRLLRR [Peptide G11.19, RRVVRRLLRR]
B. cereus MIC (B. cereus): 6.65 µM
IC50 (B. cereus): 3.41 µM
E. coli DH5a MIC (E. coli DH5a): >10 µM
IC50 (E. coli DH5a): 7.45 µM
IC50 (Salmonella): 7.69 µM
Salmonella MIC (Salmonella): >10 µM

QRAVARAATRVARTGRARWRDVARRFMRR [Peptide G8.7]
B. cereus MIC (B. cereus): 0.7 µM
IC50 (B. cereus): 0.45 µM
E. coli DH5a MIC (E. coli DH5a): 1.4 µM
IC50 (E. coli DH5a): 0.85 µM
IC50 (Salmonella): 0.42 µM
Salmonella MIC (Salmonella): 0.7 µM
